Measurements taken from US10316017B2, “COT modulators and methods of use thereof” (Gilead Sciences, Inc., priority 2015, dated 2019).

Target: T1, human Cot catalytic domain (30-397 amino acids) (Homo sapiens, UniProt P41279)
T1 construct: Purified recombinant human Cot catalytic domain (30-397 amino acids) was purchased from Cama Biosciences; purchased Cama Biosciences (so in the source)
Test: High Throughput Cot Biochemical Assay (KinEASE TR-FRET)
Conditions: Cot KinEASE TR-FRET, 400 μM ATP; read-out: IC50 HTRF
Description: Example 61: High Throughput Cot Biochemical Assay
In this assay, Cot-catalyzes the phosphorylation of a XL665-labeled peptide substrate. Europium conjugated phospho-tyrosine specific antibody binds the resulting phosphorylated peptide. […] Purified recombinant human Cot catalytic domain (30-397 amino acids) was purchased from Cama Biosciences. […] The standard 5 μL reaction mixture contained 400 μM ATP, 1 μM STK3 peptide, 5 nM of Cot in reaction buffer (10 mM MOPS, pH 7.0, 0.02% NaN3, 0.5 mg/mL BSA, 10 mM MgOAc, 1 mM DTT, 0.025% NP-40, 1.5% glycerol) and 0.1% DMSO.

T1 sequence (P41279 30-397): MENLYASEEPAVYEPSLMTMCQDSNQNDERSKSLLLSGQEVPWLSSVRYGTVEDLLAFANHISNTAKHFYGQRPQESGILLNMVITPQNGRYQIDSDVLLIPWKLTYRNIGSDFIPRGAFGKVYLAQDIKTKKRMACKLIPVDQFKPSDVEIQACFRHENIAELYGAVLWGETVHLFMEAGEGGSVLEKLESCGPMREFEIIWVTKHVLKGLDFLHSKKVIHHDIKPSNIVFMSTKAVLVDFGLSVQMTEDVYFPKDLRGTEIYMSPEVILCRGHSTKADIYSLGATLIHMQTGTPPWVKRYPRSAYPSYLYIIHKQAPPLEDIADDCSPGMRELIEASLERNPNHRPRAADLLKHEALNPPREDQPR

Row | IC50 [nM] | Compound
1 | 21 | N#Cc1cnc2c(Cl)cc(NC(c3ccc(F)cc3)c3cn(C4CCNC4)nn3)cc2c1Nc1ccc(F)c(Cl)c1 (stereo in doubt) [Example 873, 8-chloro-4-((3-chloro-4-fluorophenyl)amino)-6-(((4-fluorophenyl)(1-((S)-pyrrolidin-3-yl)-1H-1,2,3-triazol-4-yl)methyl)amino)quinoline-3-carbonitrile]
2 | 13 | CCN1CCC(n2cc(C(Nc3cc(Cl)c4ncc(C#N)c(Nc5ccc(F)c(Cl)c5)c4c3)c3ccc(Cl)cc3)nn2)CC1 (stereo not drawn) [Compound 6]
3 | 19 | N#Cc1cnc2c(Cl)cc(N[C@@H](c3ccc(F)cc3)c3cn(C4CCN(C5COC5)CC4)nn3)cc2c1Nc1ccc(F)c(Cl)c1 [Compound 31]
4 | 2 | COCc1cccc([C@H](Nc2cc(Cl)c3ncc(C#N)c(Nc4ccc(F)c(Cl)c4)c3c2)c2cn(C3CCN(C(C)(C)C)CC3)nn2)c1 [Compound 38]
5 | 1990 | COC(=O)c1cccc([C@@H](c2cn(C3CCN(C(C)(C)C)CC3)nn2)N(C)c2cc(Cl)c3ncc(C#N)c(Nc4ccc(F)c(Cl)c4)c3c2)c1 [Compound 39]
6 | 1580 | N#Cc1cnc2c(Cl)cc(NC(c3ccc(F)cc3)c3ccno3)cc2c1Nc1ccc(F)c(Cl)c1 (stereo not drawn) [Example 717, 8-chloro-4-((3-chloro-4-fluorophenyl)amino)-6-(((4-fluorophenyl)(isoxazol-5-yl)methyl)amino)quinoline-3-carbonitrile]
7 | 3460 | Cc1snnc1C(Nc1cc(Cl)c2ncc(C#N)c(Nc3ccc(F)c(Cl)c3)c2c1)c1ccc(F)cc1 (stereo not drawn) [Example 718, 8-chloro-4-((3-chloro-4-fluorophenyl)amino)-6-(((4-fluorophenyl)(5-methyl-1,2,3-thiadiazol-4-yl)methyl)amino)quinoline-3-carbonitrile]
8 | 338 | C#CC(c1ccc(Cl)cc1)N(c1cc(Cl)c2ncc(C#N)c(Nc3cncc(Cl)c3)c2c1)C(c1ccc(Cl)cc1)c1cn(C2CCN(C(C)(C)C)CC2)nn1 (stereo not drawn) [Example 725, 6-(((1-(1-(tert-butyl)piperidin-4-yl)-1H-1,2,3-triazol-4-yl)(4-chlorophenyl)methyl)(1-(4-chlorophenyl)prop-2-yn-1-yl)amino)-8-chloro-4-((5-chloropyridin-3-yl)amino)quinoline-3-carbonitrile]
9 | 39 | CN(C)CCNCc1cccc([C@H](Nc2cc(Cl)c3ncc(C#N)c(Nc4ccc(F)c(Cl)c4)c3c2)c2cn(C3CCN(C(C)(C)C)CC3)nn2)c1 [Example 726, (S)-6-(((1-(1-(tert-butyl)piperidin-4-yl)-1H-1,2,3-triazol-4-yl)(3-(((2-(dimethylamino)ethyl)amino)methyl)phenyl)methyl)amino)-8-chloro-4-((3-chloro-4-fluorophenyl)amino)quinoline-3-carbonitrile]
10 | 12 | Cn1cc(C(Nc2cc(Cl)c3ncc(C#N)c(Nc4ccc(F)c(Cl)c4)c3c2)c2cccc(C3OCCO3)c2)nn1 (stereo not drawn) [Example 730, 6-(((3-(1,3-dioxolan-2-yl)phenyl)(1-methyl-1H-1,2,3-triazol-4-yl)methyl)amino)-8-chloro-4-((3-chloro-4-fluorophenyl)amino)quinoline-3-carbonitrile]
11 | 30 | CC(C)(C)N1CCC(n2cc([C@@H](Nc3cc(Cl)c4ncc(C#N)c(Nc5ccc(F)c(F)c5)c4c3)c3ccc(Cl)cc3)nn2)CC1 [Example 732, (S)-6-(((1-(1-(tert-butyl)piperidin-4-yl)-1H-1,2,3-triazol-4-yl)(4-chlorophenyl)methyl)amino)-8-chloro-4-((3,4-difluorophenyl)amino)quinoline-3-carbonitrile]

Same assay, conditions: first value of the cell IC50/EC50; 400 μM ATP, 5 nM Cot; read-out: IC50/EC50 [nM]: IC50 (Cot)

Row | Compound | IC50 [nM]
12 | CCN1CCC(n2cc([C@H](C)Nc3cc(Cl)c4ncc(C#N)c(Nc5ccc(F)c(Cl)c5)c4c3)nn2)CC1 [Comparative Example 2, reference compound] | 62
